Test results reported in patent US6498251B1, “Tetrahydrobenzindole derivatives” (Meiji Seika Kaisha, Ltd., priority 1997, dated 2002).

Tests used:
[1] = target: T1, human serotonin 5-HT7 receptor subtype (Homo sapiens, UniProt P34969); assay: Binding affinity for 5-HT7 receptor ([3H]-5CT binding test); settings: for Ki: [3H]-5CT 1 nM, membrane fraction of cells expressing human 5-HT7, 37° C. 30 minutes, Ki calculated from IC50; for 5-HT2/5-HT7: ratio of Ki of 5-HT2 to Ki of 5-HT7 (selectivity)
T1 construct: expressed in transfected cells
Experimental: Test Example 1 Binding Affinity for 5-HT7 Rector
Cultured cells capable of expressing human serotonin 5-HT7 receptor subtype were harvested in an assay buffer solution (50 mM Tris-HCl containing 10 mM MgCl2and 0.5 mM EDTA, pH 7.4) and homogenized with a Potter tripe homogenizer, and then the membrane fraction was centrifuged for 20 minutes at 39,000 g and at 4° C. The thus obtained pellet was re-suspended in 1 ml, per cells per one culture dish of 10 cm in diameter, of the assay buffer solution and homogenized again.
The binding test was carried out using 1 nM in final concentration of [^3H]-5CT (carboxamide tryptamine) and from 1 to 1,000 nM of each substance to be tested (the compound (1) of the invention among Synthesis Examples), and adjusting the final assay volume to 300 μl by adding 100 μl of the membrane fraction suspension and then incubating the reaction system at 37° C. for 30 minutes. The incubation was terminated by quickly filtering on a GF/B filter, subsequently carrying out washing with 6 ml of cold 50 mM Tris-HCl (pH 7.4). The radioactivity was measured using a liquid scintillation counter. Non-specific binding was determined by 10 μM metergoline, and the specific binding was calculated based on the difference therefrom. The IC50 value was calculated from the inhibition curve of each compound, and the binding inhibition constant Ki was calculated from the value.

5-HT2 receptor = target: T2, 5-HT2 receptor (Rattus norvegicus, UniProt P14842); assay: Binding affinity for 5-HT2 receptor ([3H]ketanserin binding, rat cerebral cortex P2 fraction); settings: [3H]ketanserin 1 nM, 37° C. 15 minutes, Ki calculated from IC50
T2 construct: Rat cerebral cortex was homogenized; from tissue; host or cells: rat cerebral cortex, P2 membrane fraction
Experimental: Test Example 2 Binding Affinity for 5-HT2 Rector
Rat cerebral cortex was homogenized in 10 volumes of 0.32 M sucrose solution and centrifuged for 10 minutes at 900×g, and the resulting supernatant fluid was again centrifuged for 20 minutes at 11,500×g. The thus obtained precipitate was re-suspended in 50 mM Tris-HCl (pH 7.4) buffer and centrifuged for 20 minutes at 39,900×g, and the thus obtained precipitate was used as P2 fraction.
The P2 fraction was incubated at 37° C. for 15 minutes in 50 mM Tris-HCl (pH 7.4) buffer containing 1 nM of [^3H]ketanserin and each of the compounds of the invention and then filtered after the reaction using Whatman GF/B glass filter. The radioactivity on the filter was measured using a liquid scintillation counter. Non-specific binding was determined by 10 μM ketanserin, and the specific binding was calculated based on the difference therefrom. The IC50 value was calculated from the inhibition curve of each compound, and the binding inhibition constant Ki was calculated from the value.

T1 sequence (P34969 whole entry): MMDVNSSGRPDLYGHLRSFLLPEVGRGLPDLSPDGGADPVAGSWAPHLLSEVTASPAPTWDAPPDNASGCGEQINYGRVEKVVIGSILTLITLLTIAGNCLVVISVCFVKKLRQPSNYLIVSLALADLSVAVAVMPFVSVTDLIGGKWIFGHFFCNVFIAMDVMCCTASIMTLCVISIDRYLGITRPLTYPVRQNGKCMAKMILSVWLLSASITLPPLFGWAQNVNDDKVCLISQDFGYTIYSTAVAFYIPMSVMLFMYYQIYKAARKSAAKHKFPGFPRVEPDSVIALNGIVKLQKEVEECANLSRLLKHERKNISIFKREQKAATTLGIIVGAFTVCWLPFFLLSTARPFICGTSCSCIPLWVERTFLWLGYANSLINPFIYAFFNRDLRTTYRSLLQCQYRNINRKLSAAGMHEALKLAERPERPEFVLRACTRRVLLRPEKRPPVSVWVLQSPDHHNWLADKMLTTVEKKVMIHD
T2 sequence (P14842 whole entry): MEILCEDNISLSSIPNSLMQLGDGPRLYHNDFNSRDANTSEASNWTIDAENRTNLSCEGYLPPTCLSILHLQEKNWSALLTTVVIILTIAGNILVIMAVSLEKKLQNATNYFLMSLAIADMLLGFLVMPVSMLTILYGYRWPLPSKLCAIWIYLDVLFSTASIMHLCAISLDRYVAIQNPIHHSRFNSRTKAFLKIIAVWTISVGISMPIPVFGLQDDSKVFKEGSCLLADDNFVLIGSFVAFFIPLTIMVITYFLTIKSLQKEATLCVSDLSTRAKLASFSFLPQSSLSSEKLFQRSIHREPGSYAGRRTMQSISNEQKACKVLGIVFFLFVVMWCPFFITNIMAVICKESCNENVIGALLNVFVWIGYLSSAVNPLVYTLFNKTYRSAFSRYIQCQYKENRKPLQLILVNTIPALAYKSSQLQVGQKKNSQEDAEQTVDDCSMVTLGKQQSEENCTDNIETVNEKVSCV

SMILES	Ki [1] [nM]	5-HT2/5-HT7 [1]	Ki (5-HT2 receptor) [nM]
O=C1Nc2cccc3c2C1(CCCCN1CCN2c4ccccc4OCC2C1)CCC3 (stereo not drawn) [Compd. of Syn. Ex. 1b, 2a-[4-(1,2,3,4,4a,5-Hexahydropyrazino[2,1-c]-1,4-benzoxazin-3-yl)-butyl]-2a,3,4,5-tetrahydro-1H-benz[cd]indol-2-one]	9	17	151
O=C1Nc2cccc3c2C1(CCCCN1CCN(C2CCCc4ccccc42)CC1)CCC3 (stereo not drawn) [Compd. of Syn. Ex. 10d, 2a-(4-(4-(1,2,3,4-Tetrahydronaphthalen-1-yl)-piperazin-1-yl)butyl)-2a,3,4,5-tetrahydro-1H-benz[cd]indol-2-one]	9.8	>100	> 1000
O=C1Nc2cccc3c2C1(CCCCN1CCN(C2CCCc4cnccc42)CC1)CCC3 (stereo not drawn) [Compd. of Syn. Ex. 37d, 2a-(4-(4-(5,6,7,8-Tetrahydroisoquinolin-5-yl)-piperazin-1-yl)butyl)-2a,3,4,5-tetrahydro-1H-benz[d]indol-2-one]	8.8	100	882
O=C1Nc2cccc3c2C1(CCCCN1CCN2c4ccccc4[S+]([O-])CC2C1)CCC3 (stereo not drawn) [Compd. of Syn. Ex. 10b, 2a-[4-(1,2,3,4,4a,5-Hexahydro-6-oxo-6-λ^4-pyrazino[2,1-c]-1,4-benzthiazin-3-yl)-butyl]-2a,3,4,5-tetrahydro-1H-benz[cd]indol-2-one]	7	>143	> 1000
Cl.O=C1Nc2ccccc2N2CCN(CCCCC34CCCc5cccc(c53)NC4=O)CC12 (stereo not drawn) [Compd. of Syn. Ex. 13b, 2a-[4-(2,3,4,4a-Tetrahydro-1H-pyrazino[1,2-a]quinoxalin-5(6H)-one-3-yl)-butyl]-2a,3,4,5-tetrahydro-1H-benz[cd]indol-2-one Hydrochloride]	8	48	385
CN1C(=O)C2(CCCCN3CCc4ccccc4C3)CCCc3cccc1c32 (stereo not drawn) [Compd. of Syn. Ex. 14c, 2a-(4-(1,2,3,4-Tetrahydroisoquinolin-2-yl)butyl)-1-methyl-2a,3,4,5-tetrahydro-1H-benz[cd]indol-2-one]	1.9	>530	> 1000
COCn1c2c(c3ccccc31)CCN(CCCCC13CCCc4cccc(c41)NC3=O)C2 (stereo not drawn) [Compd. of Syn. Ex. 21a, 2a-[4-(9-Methoxymethyl-2,3,4,9-tetrahydro-1H-pyrido[3,4-b]indol-2-yl)-butyl]-2a,3,4,5-tetrahydro-1H-benz[cd]indol-2-one]	13	40	524
O=C1Nc2cccc3c2C1(CCCCN1CCc2sccc2C1)CCC3 (stereo not drawn) [Compd. of Syn. Ex. 17c, 2a-(4-(4,5,6,7-Tetrahydro-thieno[3,2-c]pyridin-5-yl)butyl)-2a,3,4,5-tetrahydro-1H-benz[cd]indol-2-one]	0.9	>1100	> 1000
COC(=O)n1c2c(c3ccccc31)CCN(CCCCC13CCCc4cccc(c41)NC3=O)C2 (stereo not drawn) [Compd. of Syn. Ex. 17a, 2a-[4-(9-Methoxycarbonyl-2,3,4,9-tetrahydro-1H-pyrido[3,4-b]indol-2-yl)-butyl]-2a,3,4,5-tetrahydro-1H-benz[cd]indol-2-one]	9	90	807
CC(c1ccccc1)N1CCN(CCCCC23CCCc4cccc(c42)NC3=O)CC1 (stereo not drawn) [Compd. of Syn. Ex. 2e, 2a-(4-(4-(1-Phenyl-ethyl)-piperazin-1-yl)butyl)-2a,3,4,5-tetrahydro-1H-benz[cd]indol-2-one]	30	15	456
O=C1Nc2cccc3c2C1(CCCCN1CCc2c([nH]c4ccccc24)C1)CCC3 (stereo not drawn) [Compd. of Syn. Ex. 1a, 2a-[4-(2,3,4,9-Tetrahydro-1H-pyrido[3,4-b]indol-2-yl)-butyl]-2a,3,4,5-tetrahydro-1H-benz[cd]indol-2-one]	7	33	227
